How the values were obtained:
Assay type in all cases: in vivo
[1] = test system: Beet Armyworm (Spodoptera exigua); assay: Bioassay on Beet Armyworm (BAW), 128-well diet tray assay; details: Spodoptera exigua, 168 h; 50 μg/cm^2 on artificial diet, second instar larvae, five to seven days; read-out: BAW % Control (or Mortality) rating
[2] = test system: Cabbage Looper (Trichoplusia ni); assay: Bioassay on Cabbage Looper (CL), 128-well diet tray assay; details: 168 h, 50 μg/cm^2 on artificial diet, second instar larvae, five to seven days, read-out: CL % Control (or Mortality) rating
Method in brief: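 Diet tray, 2nd instar, 1–5 larvae/well; 50 μg/cm^2 compound surface-applied (acetone:water 90:10), dried; 8 wells/treatment; 25° C, 14:10 L:D, 5–7 d; % mortality, mean of 8 wells.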

[3] = test system: Yellow Fever Mosquito (Aedes aegypti); details: about 1 day-old larvae, 3 days, scored on mortality
Procedure: Certain molecules disclosed in this document were tested against YFM using procedures described in the following paragraph. In the reporting of the results, the “GPA & YFM Rating Table” was used (See Table Section).
Master plates containing 400 μg of a molecule dissolved in 100 μL of dimethyl sulfoxide (DMSO) (equivalent to a 4000 ppm solution) are used. A master plate of assembled molecules contains 15 μL per well. To this plate, 135 μL of a 90:10 water/acetone mixture is added to each well. A robot (Biomek® NXP Laboratory Automation Workstation) is programmed to dispense 15 μL aspirations from the master plate into an empty 96-well shallow plate (“daughter” plate). There are 6 reps (“daughter” plates) created per master. The created “daughter” plates are then immediately infested with YFM larvae.
The day before plates are to be treated, mosquito eggs are placed in Millipore water containing liver powder to begin hatching (4 g. into 400 mL). After the “daughter” plates are created using the robot, they are infested with 220 μL of the liver powder/larval mosquito mixture (about 1 day-old larvae). After plates are infested with mosquito larvae, a non-evaporative lid is used to cover the plate to reduce drying. Plates are held at room temperature for 3 days prior to grading. After 3 days, each well is observed and scored based on mortality. The results are indicated in the table entitled “Table ABC: Biological Results” (See Table Section).

Row | Compound | mortality at 50 µg/cm2 [1] [%] | mortality at 50 µg/cm2 [2] [%] | YFM % Control (or Mortality) rating [3]
1 | N#Cc1ccc(/C(F)=C/C(c2cc(Cl)c(Cl)c(Cl)c2)C(F)(F)F)cc1C(F)(F)F (stereo not drawn) [C25, (Z)-4-(1,4,4,4-Tetrafluoro-3-(3,4,5-trichlorophenyl)but-1-en-1-yl)-2-(trifluoromethyl)benzonitrile] | 50 to 100 | 50 to 100 | A (80-100)
2 | O=C(NNc1c(F)cccc1Cl)c1ccc(/C(F)=C/C(c2cc(Cl)c(Cl)c(Cl)c2)C(F)(F)F)cc1C(F)(F)F (stereo not drawn) [F1, (Z)—N′-(2-chloro-6-fluorophenyl)-4-(1,4,4,4-tetrafluoro-3-(3,4,5-trichlorophenyl)but-1-en-1-yl)-2-(trifluoromethyl)benzohydrazide] | 50 to 100 | 50 to 100 | A (80-100)
3 | O=C(NNc1cccc(C(F)(F)F)c1)c1ccc(/C(F)=C/C(c2cc(Cl)c(Cl)c(Cl)c2)C(F)(F)F)cc1C(F)(F)F (stereo not drawn) [F3, (Z)-4-(1,4,4,4-Tetrafluoro-3-(3,4,5-trichlorophenyl)but-1-en-1-yl)-2-(trifluoromethyl)-N′-(3-(trifluoromethyl)phenyl)benzohydrazide] | 50 to 100 | 50 to 100 | A (80-100)
4 | CN(NC(=O)c1ccc(/C(F)=C/C(c2ccc(Cl)c(Cl)c2)C(F)(F)F)cc1C(F)(F)F)c1ncccn1 (stereo not drawn) [F8, (Z)-4-(3-(3,4-Dichlorophenyl)-1,4,4,4-tetrafluorobut-1-en-1-yl)-N′-methyl-N′-(pyrimidin-2-yl)-2-(trifluoromethyl)benzohydrazideazide] | 50 to 100 | 50 to 100 | A (80-100)
5 | O=C(NNc1ccccn1)c1ccc(/C(F)=C/C(c2cc(Cl)c(Cl)c(Cl)c2)C(F)(F)F)cc1C(F)(F)F (stereo not drawn) [F9, (Z)—N′-(Pyridin-2-yl)-4-(1,4,4,4-tetrafluoro-3-(3,4,5-trichlorophenyl)but-1-en-1-yl)-2-(trifluoromethyl)benzohydrazide] | 50 to 100 | 50 to 100 | A (80-100)
6 | CN(NC(=O)c1ccc(/C(F)=C/C(c2cc(Cl)c(Cl)c(Cl)c2)C(F)(F)F)cc1C(F)(F)F)c1ccccc1 (stereo not drawn) [F11, (Z)—N′-Methyl-N′-phenyl-4-(1,4,4,4-tetrafluoro-3-(3,4,5-trichlorophenyl)but-1-en-1-yl)-2-(trifluoromethyl)benzohydrazide] | 50 to 100 | 50 to 100 | A (80-100)
7 | COc1ccccc1NNC(=O)c1ccc(/C(F)=C/C(c2cc(Cl)c(Cl)c(Cl)c2)C(F)(F)F)cc1C(F)(F)F (stereo not drawn) [F14, (Z)—N′-(2-Methoxyphenyl)-4-(1,4,4,4-tetrafluoro-3-(3,4,5-trichlorophenyl)but-1-en-1-yl)-2-(trifluoromethyl)benzohydrazide] | 50 to 100 | 50 to 100 | A (80-100)
8 | C=C(OCC)c1c(Cl)cc(C(/C=C(\F)c2ccc(C(=O)NNc3ncccn3)c(C(F)(F)F)c2)C(F)(F)F)cc1Cl (stereo not drawn) [F190, (Z)-4-(3-(3,5-Dichloro-4-(1-ethoxyvinyl)phenyl)-1,4,4,4-tetrafluorobut-1-en-1-yl)-N′-(pyrimidin-2-yl)-2-(trifluoromethyl)benzohydrazide] | 50 to 100 | 50 to 100 | –
9 | O=C(NNc1ncccn1)c1ccc(/C(F)=C/C(c2cc(Cl)c(Cl)c(C3CC3)c2)C(F)(F)F)cc1C(F)(F)F (stereo not drawn) [F191, (Z)-4-(3-(3,4-Dichloro-5-cyclopropylphenyl)-1,4,4,4-tetrafluorobut-1-en-1-yl)-N′-(pyrimidin-2-yl)-2-(trifluoromethyl)benzohydrazide] | 50 to 100 | 50 to 100 | –
10 | O=C(/N=N/c1ncccn1)c1ccc(/C(F)=C/C(c2cc(Cl)c(Cl)c(Cl)c2)C(F)(F)F)cc1C(F)(F)F (stereo not drawn) [F192, ((E)-pyrimidin-2-yldiazenyl)(4-((Z)-1,4,4,4-tetrafluoro-3-(3,4,5-trichlorophenyl)but-1-en-1-yl)-2-(trifluoromethyl)phenyl)methanone] | 50 to 100 | 50 to 100 | –
